{"source": "patent US11083709B2", "about": "“Compounds, compositions, and methods of increasing CFTR activity” (Proteostasis Therapeutics, Inc., priority 2015, dated 2021)", "key": {"[1]": {"molecular_target": "T1, ΔF508-CFTR (Homo sapiens, UniProt P13569, DEL508-508)", "T1 construct": "primary lung epithelial cells (hBEs) homozygous for the Cystic Fibrosis-causing ΔF508 mutation; endogenous in cells; host or cells: primary lung epithelial cells (hBEs) homozygous for ΔF508", "T1 sequence (P13569 with tags, fused parts or gaps DEL508-508)": "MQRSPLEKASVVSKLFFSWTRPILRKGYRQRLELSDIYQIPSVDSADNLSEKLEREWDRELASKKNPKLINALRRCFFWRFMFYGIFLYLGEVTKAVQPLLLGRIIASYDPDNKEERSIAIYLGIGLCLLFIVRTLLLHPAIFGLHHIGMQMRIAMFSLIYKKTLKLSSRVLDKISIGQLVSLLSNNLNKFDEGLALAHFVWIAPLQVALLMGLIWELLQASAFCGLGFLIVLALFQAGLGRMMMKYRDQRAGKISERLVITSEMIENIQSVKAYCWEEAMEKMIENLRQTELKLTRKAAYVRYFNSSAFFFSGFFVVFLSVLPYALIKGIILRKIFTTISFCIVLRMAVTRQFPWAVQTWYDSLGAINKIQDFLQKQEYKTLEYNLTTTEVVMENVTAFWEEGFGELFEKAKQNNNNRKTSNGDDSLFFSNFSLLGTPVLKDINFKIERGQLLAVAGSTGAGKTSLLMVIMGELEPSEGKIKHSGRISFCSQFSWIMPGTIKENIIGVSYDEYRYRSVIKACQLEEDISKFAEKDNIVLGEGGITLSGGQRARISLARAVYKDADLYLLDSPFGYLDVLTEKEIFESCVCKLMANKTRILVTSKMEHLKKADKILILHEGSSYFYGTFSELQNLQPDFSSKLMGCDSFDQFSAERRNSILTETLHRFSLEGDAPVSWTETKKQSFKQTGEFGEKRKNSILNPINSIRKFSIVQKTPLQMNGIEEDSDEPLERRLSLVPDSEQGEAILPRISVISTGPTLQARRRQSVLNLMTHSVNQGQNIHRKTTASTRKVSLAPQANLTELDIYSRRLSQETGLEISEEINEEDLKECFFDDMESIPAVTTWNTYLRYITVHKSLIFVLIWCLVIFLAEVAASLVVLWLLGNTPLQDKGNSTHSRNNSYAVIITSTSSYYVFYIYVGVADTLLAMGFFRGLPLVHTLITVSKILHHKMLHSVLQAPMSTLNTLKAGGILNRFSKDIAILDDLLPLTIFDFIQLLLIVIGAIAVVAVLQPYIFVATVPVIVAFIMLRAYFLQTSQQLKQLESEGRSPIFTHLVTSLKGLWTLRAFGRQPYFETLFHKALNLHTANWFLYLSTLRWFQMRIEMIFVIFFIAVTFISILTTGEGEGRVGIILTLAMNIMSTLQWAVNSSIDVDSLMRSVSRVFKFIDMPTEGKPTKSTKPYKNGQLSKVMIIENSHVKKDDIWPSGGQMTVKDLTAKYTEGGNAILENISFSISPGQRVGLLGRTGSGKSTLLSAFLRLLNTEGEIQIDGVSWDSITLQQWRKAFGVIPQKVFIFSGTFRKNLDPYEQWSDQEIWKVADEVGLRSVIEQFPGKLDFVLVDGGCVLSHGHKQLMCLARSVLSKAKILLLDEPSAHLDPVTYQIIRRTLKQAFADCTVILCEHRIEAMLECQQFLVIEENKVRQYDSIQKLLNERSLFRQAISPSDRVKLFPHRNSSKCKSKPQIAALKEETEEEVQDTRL", "assay": "Ussing measurements, hBEs homozygous for ΔF508", "format": "cell-based", "conditions": "compound at 10 uM and VX-809 at 3 uM, relative to VX-809 (3 uM); 24 h treatment", "procedure": "As discussed above, Ussing measurements can be used to measure CFTR activity. In this example, primary lung epithelial cells (hBEs) homozygous for the Cystic Fibrosis-causing ΔF508 mutation were differentiated for a minimum of 4 weeks in an air-liquid interface on SnapWell filter plates prior to the Ussing measurements. Cells were apically mucus-washed for 30 minutes prior to treatment with compounds. The basolateral media was removed and replaced with media containing the compound of interest diluted to its final concentration from DMSO stocks. Treated cells were incubated at 37° C. and 5% CO2 for 24 hours. […] The short-circuit current was measured in voltage clamp-mode (Vhold=0 mV), and the entire assay was conducted at a temperature of 36° C.-36.5° C. Once the voltages stabilized, the chambers were clamped, and data was recorded by pulse readings every 5 seconds. Following baseline current stabilization, the following additions were applied and the changes in current and resistance of the cells was monitored: • 1. […]\nThe inhibitable current (that current that is blocked by CFTRinh-172) is measured as the specific activity of the ΔF508-CFTR channel, and increases in response to compound in this activity over that observed in vehicle-treated samples are identified as the correction of ΔF508-CFTR function imparted by the compound tested. […]"}, "[2]": {"system": "CFTR in R117H/F508del HBEs", "assay": "Ussing measurements, R117H/F508del HBEs", "format": "cell-based, human", "conditions": "genotype R117H/F508del", "procedure": "(§1) As discussed above, Ussing measurements was used to measure CFTR activity. In this method, primary lung epithelial cells (hBEs) with a Cystic Fibrosis-causing class III mutation were differentiated for a minimum of 4 weeks in an air-liquid interface on SnapWell™ filter plates prior to the Ussing measurements. Cells were apically mucus-washed for 30 minutes prior to treatment with compounds. The basolateral media was removed and replaced with media containing the compound of interest diluted to its final concentration from DMSO stocks. Treated cells were incubated at 37° C. and 5% CO2 for 24 hours. At the end of the treatment period, the cells on filters were transferred to the Ussing chamber and equilibrated for 30 minutes. The short-circuit current was measured in voltage clamp-mode (Vhold=0 mV), and the entire assay was conducted at a temperature of 36° C.-36.5° C. Once the voltages stabilized, the chambers were clamped, and data was recorded by pulse readings every 5 seconds. Following baseline current stabilization, the following additions were applied and the changes in current and resistance of the cells was monitored: • 1. Benzamil to the apical chamber to inhibit ENaC sodium channel. • 2. Forskolin to both chambers to activate ΔF508-CFTR by phosphorylation. • 3. Ivacaftor or Genistein to the apical chamber to potentiate ΔF508-CFTR channel opening. • 4. CFTRinh-172 to the apical chamber to inhibit ΔF508-CFTR Cl-conductance.\n(§2) The forskolin-sensitive current and inhibitable current (that potentiated current that is blocked by CFTRinh-172) were measured as the specific activity of the ΔF508-CFTR channel, and increase in response to compound in this activity over that observed in vehicle-treated samples were identified as the correction of ΔF508-CFTR function imparted by the compound tested.\nThe results are shown below in Tables 5 and 6. Compound A is 10 uM and VX-809 is 3 uM and ivacaftor is 1 uM."}, "[3]": {"molecular_target": "T2, CFTR in F508/F508del HBEs (Homo sapiens, UniProt P13569, DEL508-508)", "T2 construct": "Activity in F508/F508del HBEs (relative); endogenous in cells; host or cells: primary lung epithelial cells (HBEs), genotype F508/F508del [sic]", "T2 sequence (P13569 with tags, fused parts or gaps DEL508-508)": "as above", "assay": "Ussing measurements, F508del/F508del HBEs", "format": "cell-based", "conditions": "genotype F508del/F508del", "procedure": "as §1, with “measurements were” for “measurements was”, “Cystic fibrosis causing” for “Cystic Fibrosis-causing”, “class I” for “class III”, “DMSO or aqueous” for “DMSO”, “data were” for “data was”, “cells were” for “cells was”\nas §2, with “that was” for “that is”\nThe results are shown below in Tables 3 and 4. Compound A is 10 uM and VX-809 is 3 uM and ivacaftor is 1 uM."}}}
{"compound": "C[C@@H](O)c1nnc([C@H]2C[C@H](NC(=O)c3cc(-c4ccccc4)no3)C2)o1", "note": "[Example 6, N-(trans-3-(5-((R)-1-hydroxyethyl)-1,3,4-oxadiazol-2-yl)cyclobutyl)-3-phenylisoxazole-5-carboxamide]", "values": [{"measurement": "Ussing: activity of compound with VX-809, % of VX-809", "setting": "[1]", "value": "## (## indicates activity ≥200% of VX-809 (3 uM) with compound at 10 uM and VX-809 at 3 uM)"}, {"measurement": "Combination with ivacaftor, activity", "setting": "[2]; compound A 10uM + ivacaftor 1uM, relative activity of 100% = ivacaftor", "value": "++++ (++++ indicates activity at 10uM of >150% of the indicated relative activity treatment)"}, {"measurement": "Stand Alone activity", "setting": "[2]; compound A 10uM, relative activity of 100% = ivacaftor (1uM)", "value": "+++ (+++ indicates activity at 10uM of 100% to <150% of the indicated relative activity treatment)"}, {"measurement": "Combination with ivacaftor and VX-661, activity", "setting": "[3]; compound A 10uM + ivacaftor 1uM + VX-661 3 uM, relative activity of 100% = ivacaftor and VX-661", "value": "++++ (++++ indicates activity at 10uM of >150% of the indicated relative activity treatment)"}, {"measurement": "Combination with ivacaftor and lumacaftor, activity", "setting": "[3]; compound A 10uM + ivacaftor 1uM + lumacaftor 3 uM, relative activity of 100% = ivacaftor and lumacaftor", "value": "++++ (++++ indicates activity at 10uM of >150% of the indicated relative activity treatment)"}, {"measurement": "Stand Alone activity", "setting": "[3]; compound A 10uM, relative activity of 100% = ivacaftor (1uM) and lumacaftor (3 uM)", "value": "+ (+ indicates activity at 10uM of 15% to <50% of the indicated relative activity treatment)"}]}
